Assays:
DHODH = DHODH (Homo sapiens (Human), UniProt Q02127); assay: DHODH activity assay (coupled enzyme assay, DCIP reduction); format: biochemical; conditions: read-out: DHODH inhibition activity, IC50 group
Method: The DHODH activity assay is a coupled enzyme assay in which oxidation of DHO and subsequent reduction of ubiquinone are stoichiometrically equivalent to the reduction of DCIP ([…]). The reduction of DCIP is accompanied by a loss of absorbance at 610 nm.
Buffer Preparation: 50 mM tris HCl, 150 mM KCl, and pH 8.0, 0.8% triton.
L-Dihydroorotic acid stock solution of 20 mM in buffer.
2, 6-Dichloroindophenol Sodium salt hydrate stock solution of 20 mM in buffer.
Decylubiquinone stock solution of 20 mM in buffer.
5 μL of Dimethyl sulfoxide or a compound of formula (I) in DMSO solution was added to the wells of a 96 well plate. Compounds of formula (I) were measured at 10 μM.
Protein along with buffer was added, so that the total volume including the DMSO was 87 μL. Compound and protein were incubated for half an hour at room temperature after mixing. 5 μL of 20 mM solution of L-Dihydroorotic acid, 5 μL of 2 mM solution of Decylubiquinone and 3 μL of 2 mM solution of 2, 6-Dichloroindophenol sodium salt hydrate were added to the above solution (total assay volume 100 μL). The mixture was stirred for 2 min and absorbance was recorded at every 10 min at 610 nanometers.
Percent inhibition is calculated as follows: […]
A 2 mM DMSO stock solution of the selected trisubstituted benzoimidazole and benzotriazole derivatives of formula (I) of the present invention to be examined was prepared. Subsequent ⅓rd dilutions were made.
5 μL of each stock of compound of formula (I) was used for each 100 μL assay. Therefore, 5 μL of the 2 mM stock provided 100 μL of 100 μM solution of compound of formula (I), when made up with buffer, protein and substrate. See also: Ulrich et al. (2001) Eur. J. Biochem.268, 1861-1868.

Kasumi-3 = assay: Heme line growth assay (Cell-Titer Glo), 4-day and extended 7-day; format: cell-based, human
Method: (§1) A follow-up screen was performed on an expanded panel of cell lines of heme lineage in a 4-day growth assay. Growth was assessed by Cell-Titer Glo measurements on day 0 and day 4.
(§2) Compound 1, of which diffuse large B cell lymphoma (DLBCL) lines were particularly sensitive (8/11 or 73%). A subset of the heme lines that were of intermediate sensitivity (defined as >50% and <75% growth rate inhibition) or insensitive (defined as <50% growth rate inhibition) to compound 1 in this follow-up screen were subjected to extended growth assays to evaluate if increased treatment time modulated their sensitivity profile. Specifically, these heme lines were pretreated with Compound 1 for three days at the indicated concentrations and then re-plated for a standard 4-day growth assay in fresh media/drug.

Kasumi-6 = assay: as above; format: cell-based, human
Method: as §1, §2

[1] = test system: cell lines of heme lineage; assay: Follow-up screen on expanded panel of cell lines of heme lineage, 4-day growth assay; format: cell-based, human
Method: as §1, §2

MOLM-13 tumors = assay: MOLM-13 acute myeloid leukemia xenograft model; format: in vivo
Method: In vivo efficacy studies with Compound 1 were performed to assess the in vitro to in vivo translation of effects on blockade of DHODH and tumor cell growth inhibition. 1×10^6 MOLM-13 cells were implanted subcutaneously into CB17 SCID mice. Mice (n=15/group) were treated with vehicle or Compound 1 at 100 mg/kg BID PO once tumors reached an average of ˜150 mm^3. At end of the study, tissues were collected at the indicated timepoints post-last dose for pharmacokinetic (PK) and pathway biomarker analyses.

DLBCL_1 tumor = assay: Patient-derived DLBCL xenograft model DLBCL_1 (triple hit); format: in vivo, CB17 SCID mice; conditions: 100 mg/kg BID PO
Method: A screen was next performed using a small number of mice/group to assess efficacy of Compound 1 in AML and DLBCL patient-derived xenograft models. Tumor-bearing mice (n=3/group) were treated with vehicle or Compound 1 at 100 mg/kg BID PO.

OCILY-19 tumors = assay: OCILY-19 diffuse large B-cell lymphoma xenograft model; format: in vivo, CB17 SCID mice
Method: 7×10^6 OCILY-19 cells were implanted subcutaneously into CB17 SCID mice. Mice (n=15-18/group) were treated with vehicle or Compound 1 at the indicated dose/frequency once tumors reached an average of ˜150 mm^3. Tissues were collected at the indicated timepoints post-last dose for PK and biomarker analyses.

DU4475 = assay: Triple negative breast cancer cell line panel, 96 hours; format: cell-based, human; conditions: DU4475, 96 hours
Method: FIG. 10 is a curve showing the relative growth rate of the DU4475 triple negative breast cancer line treated with various concentrations of Compound 1 for 96 hours.
A panel of triple negative cancer cell lines (TNBC) were screened to evaluate whether a subset of TNBC could potentially benefit from treatment with compound 1 as a single agent.

DHODH, sequence (Q02127 whole entry): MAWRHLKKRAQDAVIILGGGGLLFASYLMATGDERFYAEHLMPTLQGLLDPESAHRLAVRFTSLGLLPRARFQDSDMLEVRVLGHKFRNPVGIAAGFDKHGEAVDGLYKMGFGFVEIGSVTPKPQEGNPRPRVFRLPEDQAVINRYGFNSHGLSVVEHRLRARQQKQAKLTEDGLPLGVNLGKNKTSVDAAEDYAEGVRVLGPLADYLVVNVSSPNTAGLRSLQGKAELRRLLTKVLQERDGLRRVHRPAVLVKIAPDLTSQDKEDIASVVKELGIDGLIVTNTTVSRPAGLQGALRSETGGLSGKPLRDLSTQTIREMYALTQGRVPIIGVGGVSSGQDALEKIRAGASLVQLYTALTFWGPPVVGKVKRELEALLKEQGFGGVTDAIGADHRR

Cc1ccccc1-c1ccc(-c2cc(C(=O)O)c3c(c2)nnn3C)cc1 [Compound 1, 1-methyl-5-(2′-methyl-[1,1′-biphenyl]-4-yl)-1H-benzo[d][1,2,3]triazole-7-carboxylic Acid]
IC50 (DHODH): < 100 nM | Sensitivity 7-day (Kasumi-3; Kasumi-3, 3 days pretreatment then 4-day growth assay): * (insensitive) | Sensitivity 4-day (Kasumi-3; Kasumi-3, acute myeloid leukemia, 4-day growth assay): * (insensitive) | Sensitivity 7-day (Kasumi-6; Kasumi-6, 3 days pretreatment then 4-day growth assay): * (insensitive) | Sensitivity 4-day (Kasumi-6; Kasumi-6, acute myeloid leukemia, 4-day growth assay): * (insensitive) | Share of diffuse large B cell lymphoma (DLBCL) lines that were sensitive ([1]; 8/11 lines): 73% | Share of the heme lines screened that exhibited sensitivity ([1]; 20/80 lines): 25% | Tolerability (MOLM-13 tumors; 100 mg/kg BID PO, CB17 SCID mice): well tolerated | Tumor growth inhibition (TGI) (MOLM-13 tumors; 100 mg/kg BID PO, MOLM-13 xenograft, 14 days): near complete tumor growth inhibition | Reduction of tumor uridine pools (MOLM-13 tumors; 100 mg/kg BID, MOLM-13 tumors, depending on the timepoint): ~60% | Tumor levels of dihydroorotate (DHO) (MOLM-13 tumors; 100 mg/kg BID, MOLM-13 tumors, over 12 hrs after last dose, baseline BQL<120 ng/g): dramatic increase | Pharmacokinetics profile in plasma and tumor (MOLM-13 tumors; 100 mg/kg BID, after last dose): drop in drug concentrations by 12 hrs | TGI (DLBCL_1 tumor): > 60% | Efficacy of dosing regimen (OCILY-19 tumors; 100 mg/kg BID compared to 10 and 30 mg/kg BID): superior efficacy | Tumor DHO (OCILY-19 tumors; 100 mg/kg BID versus 10 and 30 mg/kg BID, OCILY-19 tumors): larger increase | Total tumor uridine pools (OCILY-19 tumors; 100 mg/kg BID, OCILY-19 tumors): decrease | Efficacy of dosing regimen (OCILY-19 tumors; 200 mg/kg QD compared to 100 mg/kg BID): less efficacious | In vivo tumor growth (OCILY-19 tumors; OCILY-19 DLBCL xenograft, CB17 SCID mice): strong block in in vivo tumor growth | Half-life in mice (OCILY-19 tumors; mice): short half-life | Cell viability/growth (DU4475): robustly impaired cell viability/growth

Source: patent US11147801B2, “Methods of use for trisubstituted benzotriazole derivatives as dihydroorotate oxygenase inhibitors” (Aurigene Discovery Technologies Limited, priority 2017, dated 2021)
